Data published in patent publication US9409952B2, “Peptide-compound cyclization method” (Chugai Seiyaku Kabushiki Kaisha, priority 2011, dated 2016).
Starred links: 1 amine or outer side, 2 acyl side, 3 side chain; linkers in the order of their positions; H or OH if unused. Non-standard residues stand in square brackets, D forms with d. Residues, ends and D or L forms follow the SMILES beside them. *: point of attachment. Phe(4-CF3) = N[C@@H](Cc1ccc(C(F)(F)F)cc1)C(=O)O; NMePhe(3-Cl) = CN[C@@H](Cc1cccc(Cl)c1)C(=O)O; NMeF = CN[C@@H](Cc1ccccc1)C(=O)O; NMeGABA = CN(CCCC(=O)[*:2])[*:1]; NMeI = CC[C@H](C)[C@H](NC)C(=O)O; NMeβAla = CN(CCC(=O)[*:2])[*:1]; NMeL = CN[C@@H](CC(C)C)C(=O)O; NMeA = CN[C@@H](C)C(=O)O; dNMeA = CN[C@H](C)C(=O)O; β3hA = C[C@H](N)CC(=O)O; Sar = CNCC(=O)O; tBu = CC(C)(C)*

Tests used:
[1] = PAMPA (parallel artificial membrane permeability assay); assay type: in vitro ADME; conditions: PAMPA; membrane permeation rate (Pe); 50 mM MOPSO buffer pH 6.5 with 5.0% glycocholic acid, 37° C., 18 hours; read-out: iPAMPA Pe
Procedure, shortened: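 Artificial membrane was 10% (w/v) egg lecithin plus 0.5% (w/v) cholesterol in dodecane on a PVDF filter. A 10 mM DMSO stock was added at 0.5% (v/v) to donor buffer (50 mM MOPSO, pH 6.5, 5.0% glycocholic acid). After 18 h at 37 °C, LC/MS or LC/UV gave donor and acceptor levels for Pe.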

[2] = Metabolic stability in human hepatic microsome; assay type: in vitro ADME; conditions: microsomes, pH 7.4; human hepatic microsome, NADPH(+); read-out: CL NADPH(+)

SMILES | Papp at 18 hours, 50 µM [1] | microsomal CLint at 1 uM [2]
CC(C)C[C@@H]1NC(=O)[C@H](Cc2ccccc2)N(C)C(=O)[C@H](C)N(C)C(=O)C[C@H](C)NC(=O)[C@H]([C@@H](C)O)NC(=O)[C@H](CC(C)C)N(C)C(=O)[C@H](Cc2ccccc2)NC(=O)[C@H](CC(C)C)N(C)C(=O)[C@H](CC(C)C)N(C)C1=O [DP-791] (cyclo(F[NMeL]T[β3hA][NMeA][NMeF]L[NMeL][NMeL])) | 41 ×10⁻⁶ cm/s | 794 µL/min/mg
CC(C)C[C@@H]1NC(=O)[C@@H](C(C)C)NC(=O)C[C@H](C)NC(=O)[C@H](CC(C)C)N(C)C(=O)[C@H](Cc2cccc(Cl)c2)N(C)C(=O)[C@H](CC(C)C)N(C)C(=O)[C@H](Cc2ccc(C(F)(F)F)cc2)NC(=O)[C@H](C)N(C)C(=O)[C@H]([C@@H](C)O)NC1=O [DP-792] (cyclo(LT[NMeA][Phe(4-CF3)][NMeL][NMePhe(3-Cl)][NMeL][β3hA][dV])) | 33 ×10⁻⁶ cm/s | 16 µL/min/mg
CC(C)C[C@@H]1NC(=O)[C@H](Cc2ccccc2)N(C)C(=O)[C@H](CC(C)C)N(C)C(=O)[C@@H](C)N(C)C(=O)C[C@H](C)NC(=O)[C@H](CC(C)C)N(C)C(=O)[C@H](Cc2ccccc2)N(C)C(=O)[C@H]([C@@H](C)O)NC(=O)[C@H](Cc2ccccc2)N(C)C1=O [DP-793] (cyclo(L[NMeF]T[NMeF][NMeL][β3hA][dNMeA][NMeL][NMeF])) | 53 ×10⁻⁶ cm/s | 218 µL/min/mg
CC(C)C[C@H]1C(=O)NCC(=O)N[C@@H](C)CC(=O)N(C)CCC(=O)N[C@@H]([C@@H](C)O)C(=O)N(C)[C@@H](C)C(=O)N[C@@H](COC(C)(C)C)C(=O)N(C)[C@@H](Cc2ccccc2)C(=O)N1C [DP-794] (cyclo(G[β3hA][NMeβAla]T[NMeA]S(tBu)[NMeF][NMeL])) | 3.7 ×10⁻⁶ cm/s | 43 µL/min/mg
CC(C)C[C@H]1C(=O)N(C)[C@@H](CC(C)C)C(=O)N[C@@H](C)CC(=O)N(C)CCCC(=O)N(C)[C@@H](Cc2ccccc2)C(=O)N[C@@H]([C@@H](C)O)C(=O)N(C)CC(=O)N[C@@H](COC(C)(C)C)C(=O)N1C [DP-795] (cyclo([NMeF]T[Sar]S(tBu)[NMeL][NMeL][β3hA][NMeGABA])) | 19 ×10⁻⁶ cm/s | 143 µL/min/mg
CC(C)C[C@H]1C(=O)N(C)[C@@H](Cc2ccccc2)C(=O)N[C@@H](C)CC(=O)N[C@H](C(C)C)C(=O)N[C@@H](C)C(=O)N[C@@H]([C@@H](C)O)C(=O)N(C)[C@@H](C)C(=O)N[C@@H](Cc2ccccc2)C(=O)N1C [DP-796] (cyclo(AT[NMeA]F[NMeL][NMeF][β3hA][dV])) | 20 ×10⁻⁶ cm/s | 66 µL/min/mg
CC(C)C[C@H]1C(=O)N[C@@H](C)CC(=O)N(C)[C@H](C)C(=O)N(C)[C@@H](Cc2ccccc2)C(=O)N(C)[C@@H](CC(C)C)C(=O)N[C@@H]([C@@H](C)O)C(=O)N(C)CC(=O)N[C@@H](COC(C)(C)C)C(=O)N1C [DP-797] (cyclo([NMeF][NMeL]T[Sar]S(tBu)[NMeL][β3hA][dNMeA])) | 26 ×10⁻⁶ cm/s | 91 µL/min/mg
CC(C)C[C@@H]1NC(=O)[C@H](C)NC(=O)C[C@H](C)NC(=O)[C@H](Cc2ccccc2)N(C)C(=O)[C@H](CC(C)C)N(C)C(=O)[C@H](C)NC(=O)[C@H](Cc2ccccc2)N(C)C(=O)[C@H](CC(C)C)N(C)C1=O [DP-798] (cyclo(AL[NMeL][NMeF]A[NMeL][NMeF][β3hA])) | 69 ×10⁻⁶ cm/s | 1540 µL/min/mg
CC[C@H](C)[C@H]1C(=O)N[C@@H](C)CC(=O)N(C)[C@H](C)C(=O)N(C)[C@@H](Cc2cccc(Cl)c2)C(=O)N(C)[C@@H](CC(C)C)C(=O)N[C@@H]([C@@H](C)O)C(=O)N(C)CC(=O)N[C@@H](COC(C)(C)C)C(=O)N(C)[C@@H](CC(C)C)C(=O)N1C [DP-799] (cyclo([NMeI][β3hA][dNMeA][NMePhe(3-Cl)][NMeL]T[Sar]S(tBu)[NMeL])) | 32 ×10⁻⁶ cm/s | 222 µL/min/mg
CC[C@H](C)[C@H]1C(=O)N[C@@H](C)CC(=O)N(C)[C@H](C)C(=O)N(C)[C@@H](CC(C)C)C(=O)N(C)[C@@H](CC(C)C)C(=O)N[C@@H]([C@@H](C)O)C(=O)N(C)CC(=O)N[C@@H](COC(C)(C)C)C(=O)N(C)[C@@H](CC(C)C)C(=O)N1C [DP-800] (cyclo([NMeI][β3hA][dNMeA][NMeL][NMeL]T[Sar]S(tBu)[NMeL])) | 25 ×10⁻⁶ cm/s | 58 µL/min/mg
CC(C)C[C@H]1C(=O)N[C@@H](COC(C)(C)C)C(=O)N[C@@H](C)CC(=O)N[C@H](C(C)C)C(=O)N(C)[C@@H](Cc2cccc(Cl)c2)C(=O)N(C)[C@@H](C)C(=O)N(C)[C@@H](CC(C)C)C(=O)N[C@@H]([C@@H](C)O)C(=O)N(C)[C@@H](C)C(=O)N1C [DP-801] (cyclo([NMeA][NMeL]S(tBu)[β3hA][dV][NMePhe(3-Cl)][NMeA][NMeL]T)) | 60 ×10⁻⁶ cm/s | 133 µL/min/mg
CC(C)C[C@H]1C(=O)N(C)[C@@H](C)C(=O)N(C)[C@@H](CC(C)C)C(=O)N[C@@H]([C@@H](C)O)C(=O)N(C)[C@@H](C)C(=O)N(C)[C@@H](CC(C)C)C(=O)N[C@@H](COC(C)(C)C)C(=O)N[C@@H](C)CC(=O)N[C@H](C(C)C)C(=O)N1C [DP-802] (cyclo([NMeA][NMeL]S(tBu)[β3hA][dV][NMeL][NMeA][NMeL]T)) | 29 ×10⁻⁶ cm/s | 77 µL/min/mg
CC[C@H](C)[C@H]1C(=O)N[C@@H](COC(C)(C)C)C(=O)N[C@@H](C)CC(=O)N(C)[C@@H](C)C(=O)N(C)[C@@H](Cc2cccc(Cl)c2)C(=O)N(C)CC(=O)N(C)[C@@H](CC(C)C)C(=O)N[C@@H]([C@@H](C)O)C(=O)N(C)[C@@H](C)C(=O)N(C)[C@@H](CC(C)C)C(=O)N1C [DP-803] (cyclo([NMeA][NMeL][NMeI]S(tBu)[β3hA][NMeA][NMePhe(3-Cl)][Sar][NMeL]T)) | 28 ×10⁻⁶ cm/s | 85 µL/min/mg
CC[C@H](C)[C@H]1C(=O)N[C@@H](COC(C)(C)C)C(=O)N[C@@H](C)CC(=O)N(C)[C@@H](C)C(=O)N(C)[C@@H](CC(C)C)C(=O)N(C)CC(=O)N(C)[C@@H](CC(C)C)C(=O)N[C@@H]([C@@H](C)O)C(=O)N(C)[C@@H](C)C(=O)N(C)[C@@H](CC(C)C)C(=O)N1C [DP-804] (cyclo([NMeA][NMeL][NMeI]S(tBu)[β3hA][NMeA][NMeL][Sar][NMeL]T)) | 29 ×10⁻⁶ cm/s | 40 µL/min/mg
CC[C@H](C)[C@@H]1NC(=O)[C@H](CC(C)C)N(C)C(=O)[C@H](C)NC(=O)CN(C)C(=O)[C@H](Cc2ccc(C(F)(F)F)cc2)NC(=O)[C@H]([C@@H](C)O)NC(=O)[C@H](CC(C)C)N(C)C(=O)CCN(C)C(=O)C[C@H](C)NC(=O)[C@H](CC(C)C)N(C)C(=O)[C@H](CC(C)C)N(C)C1=O [DP-805] (cyclo(A[NMeL]I[NMeL][NMeL][β3hA][NMeβAla][NMeL]T[Phe(4-CF3)][Sar])) | 41 ×10⁻⁶ cm/s | 169 µL/min/mg
CC[C@H](C)[C@@H]1NC(=O)[C@H](CC(C)C)N(C)C(=O)[C@H](C)NC(=O)CN(C)C(=O)[C@H](CC(C)C)NC(=O)[C@H]([C@@H](C)O)NC(=O)[C@H](CC(C)C)N(C)C(=O)CCN(C)C(=O)C[C@H](C)NC(=O)[C@H](CC(C)C)N(C)C(=O)[C@H](CC(C)C)N(C)C1=O [DP-806] (cyclo(A[NMeL]I[NMeL][NMeL][β3hA][NMeβAla][NMeL]TL[Sar])) | 27 ×10⁻⁶ cm/s | 88 µL/min/mg
